Data from patent publication EP0148075A2, “Anti-PGE specific monoclonal antibodies, their preparation and their biological applications” (INSTITUT PASTEUR, priority 1983, dated 1985).

Experiments:
Format in all cases: binding, souris
[1] = tested on: anticorps monoclonal anti-PG E2 secrété par les hybridomes 42-61-48 (CNCM 1-255), type IgG Cb Kapa; assay: competition radioimmunoassay (affinity by Scatchard plot, specificity by displacement of tritiated PG E2); conditions: 12 h at 4°C; for quantité qu'il faut pour déplacer 2,5 pg de PG E2 tritiée liée à l'anticorps: competition with tritiated PG E2
Description: (§1) 'L'affinité des anticorps est étudiée en effectuant un essai radio-immunologique dit de compétition; on détermine l'importance relative de la fixation de PG E marquée au tritium et non marquée sur les anticorps monoclonaux à étudier pour des mélanges de ces PG E en quantités données; Pour cela, on fait incuber 12 heures à 4°C des quantités croissantes de PG E non marquée avec une dilution du surnageant de chaque puits dans lequel se développent des clones secréteurs, en présence de 10 pg de la même PG E mais tritiée; on calcule la dilution pour que 50% de la PG E tritiée se fixe sur les anticorps présents; les résultats obtenus sont représentés selon une courbe de Scatchard, d'où l'on déduit, de façon connue, la constante d'association de l'anticorps monoclonal à la PG E qui traduit l'affinité des anticorps pour leur antigène. La méthode de calcul de la constante d'association est décrite notamment dans Ann. N.Y. Acad. Sci.5l, p.660-672 (1949).
(§2) La spécificité des anticorps est étudiée en effectuant le même type d'essai radioimmunologique de compétition lors de la fixation sur l'anticorps monoclonal anti-PG E à étudier, mais la compétition a lieu entre la PG E tritiée correspondant à l'anticorps préparé et d'autres prostaglandines.
(§3) On mesure l'affinité et la spécificité des anti-corps secrétés dans le surnageant, par les méthodes radio-immunologiques de compétition de liaison précédemment décrites.

[2] = tested on: anticorps monoclonal anti-PG E2 secrété par les hybridomes 8E57 (CNCM 1-254); assay: as above; conditions: 12 h at 4°C; for quantité qu'il faut pour déplacer 2,5 pg de PG E2 tritiée de sa liaison à l'anticorps: competition with tritiated PG E2
Description: as §1, §2, §3

[3] = target: anticorps monoclonal anti-PG E1 de la lignée d'hybridomes 36-F-20 (36F20, CNCM I-403), type IgG 1 Kapa; assay: competition radioimmunoassay (affinity, Scatchard plot); conditions: association constant for PG E1; 720 min; read-out: constante d'affinité (converted)
Description: as §1

[4] = target: anticorps monoclonal anti-PG E2 de la souche 38-200.10 (CNCM I-401), type IgGl Kapa; assay: as above; conditions: association constant for PG E2; 720 min; read-out: constante d'affinité (converted)
Description: as §1, §3

[5] = target: anticorps monoclonal anti-PG E2 de la souche 42-61-48.46 (CNCM I-402); assay: as above; conditions: association constant for PG E2; 720 min; read-out: constante d'affinité (converted)
Description: as §1, §3

[6] = association constant for PG E2, 10 pg tritiated PG E2

Row | quantité qu'il faut pour déplacer 2,5 pg de PG E2 tritiée liée à l'anticorps [1] | quantité qu'il faut pour déplacer 2,5 pg de PG E2 tritiée de sa liaison à l'anticorps [2] | Kd [3] [nM] | Kd [4] [nM] | Kd [5] [nM] | constante d'affinité Ka [1, 6] [M⁻¹] | constante d'affinité Ka [2, 6] | SMILES
1 | 80 pg | 40 pg |  | 0.11 | 0.222 | 5e+09 | 10^10 M^-1 | CCCCC[C@H](O)/C=C/[C@H]1[C@H](O)CC(=O)[C@@H]1C/C=C\CCCC(=O)O [PG E2]
2 | 500 000 pg | > 10 000 pg |  |  |  |  |  | CCCCC[C@H](O)/C=C/C1=C(C/C=C\CCCC(=O)O)C(=O)CC1 [PG B2]
3 | 50 000 pg | > 500 pg |  |  |  |  |  | CCCCC[C@H](O)/C=C/[C@H]1C=CC(=O)[C@@H]1C/C=C\CCCC(=O)O [PG A2]

Continued, molecule first:

Row | SMILES | quantité qu'il faut pour déplacer 2,5 pg de PG E2 tritiée liée à l'anticorps [1] | quantité qu'il faut pour déplacer 2,5 pg de PG E2 tritiée de sa liaison à l'anticorps [2] | Kd [3] [nM] | Kd [4] [nM] | Kd [5] [nM] | constante d'affinité Ka [1, 6] [M⁻¹] | constante d'affinité Ka [2, 6]
4 | CCCCC[C@H](O)/C=C/[C@H]1[C@H](O)CC(=O)[C@@H]1CC(=O)CCCCC(=O)O [6-céto-PG E1] | 1000 pg | 350 pg |  |  |  |  | 
5 | CCCCC[C@H](O)/C=C/[C@@H]1[C@@H](CCCCCCC(=O)O)[C@@H](O)C[C@H]1O [PG Flalpha] | 40 000 pg |  |  |  |  |  | 
6 | CCCCC[C@H](O)/C=C/[C@H]1[C@H](O)CC(=O)[C@@H]1CCCCCCC(=O)O [PG E1] | 350 pg | 70 pg | 0.05 |  |  |  | 
